Laboratory results as given in the NIST ThermoML archive (doi:10.1016/j.fluid.2015.03.038).
Several values for one entry are separate records, joined by “and”; a condition that tells them apart may be missing. Equal values may be shown once.

Settings: Liquid

OCC(O)CO [glycerol]
Settings | vapor or sublimation pressure
303.59 K, static (had to override TRC unc) | 4.15e-05 kPa
303.61 K, static (had to override TRC unc) | 4.19e-05 kPa
304.56 K, static (had to override TRC unc) | 4.68e-05 kPa
306.03 K, static (had to override TRC unc) | 5.56e-05 kPa
308.43 K, static (had to override TRC unc) | 7.28e-05 kPa
310.89 K, static (had to override TRC unc) | 9.63e-05 kPa
313.29 K, static (had to override TRC unc) | 0.000125 kPa
315.71 K, static (had to override TRC unc) | 0.0001634 kPa
318.12 K, static (had to override TRC unc) | 0.0002107 kPa
320.57 K, static (had to override TRC unc) | 0.0002701 kPa
322.95 K, static (had to override TRC unc) | 0.0003472 kPa
325.42 K, static (had to override TRC unc) | 0.0004428 kPa
327.82 K, static (had to override TRC unc) | 0.0005644 kPa
330.3 K, static (had to override TRC unc) | 0.0007165 kPa
332.72 K, static (had to override TRC unc) | 0.0009037 kPa
335.14 K, static (had to override TRC unc) | 0.001132 kPa
338.2 K, transpiration (had to override TRC unc) | 0.00151 kPa
338.25 K, static (had to override TRC unc) | 0.001502 kPa
340.68 K, static (had to override TRC unc) | 0.001872 kPa
341.7 K, transpiration (had to override TRC unc) | 0.0021 kPa
343.08 K, static (had to override TRC unc) | 0.00232 kPa
345.51 K, static (had to override TRC unc) | 0.002876 kPa
347.7 K, transpiration (had to override TRC unc) | 0.00355 kPa
347.91 K, static (had to override TRC unc) | 0.003529 kPa
350.34 K, static (had to override TRC unc) | 0.00436 kPa
351.5 K, transpiration (had to override TRC unc) | 0.00503 kPa
352.57 K, static (had to override TRC unc) | 0.00526 kPa
352.58 K, static (had to override TRC unc) | 0.00527 kPa
352.6 K, static (had to override TRC unc) | 0.00528 kPa
352.73 K, static (had to override TRC unc) | 0.005318 kPa
354.5 K, transpiration (had to override TRC unc) | 0.00631 kPa
354.98 K, static (had to override TRC unc) | 0.00639 kPa
354.99 K, static (had to override TRC unc) | 0.00641 kPa
355.18 K, static (had to override TRC unc) | 0.006488 kPa
357.39 K, static (had to override TRC unc) | 0.00777 kPa
357.42 K, static (had to override TRC unc) | 0.00782 kPa
357.5 K, transpiration (had to override TRC unc) | 0.00831 kPa
357.57 K, static (had to override TRC unc) | 0.007863 kPa
359.8 K, static (had to override TRC unc) | 0.00938 kPa
359.82 K, static (had to override TRC unc) | 0.00939 kPa
360.01 K, static (had to override TRC unc) | 0.009523 kPa
360.1 K, transpiration (had to override TRC unc) | 0.00989 kPa
362.42 K, static (had to override TRC unc) | 0.01146 kPa
362.63 K, static (had to override TRC unc) | 0.0117 kPa
362.66 K, static (had to override TRC unc) | 0.01179 kPa
363.2 K, transpiration (had to override TRC unc) | 0.01274 kPa
364.82 K, static (had to override TRC unc) | 0.0138 kPa
365.07 K, static (had to override TRC unc) | 0.0141 kPa
365.08 K, static (had to override TRC unc) | 0.01409 kPa
365.9 K, transpiration (had to override TRC unc) | 0.01529 kPa
367.45 K, static (had to override TRC unc) | 0.01686 kPa
367.48 K, static (had to override TRC unc) | 0.01696 kPa
369.89 K, static (had to override TRC unc) | 0.0202 kPa
369.91 K, static (had to override TRC unc) | 0.02016 kPa
370.3 K, transpiration (had to override TRC unc) | 0.0208 kPa
372.27 K, static (had to override TRC unc) | 0.024 kPa
372.29 K, static (had to override TRC unc) | 0.02415 kPa
374.7 K, static (had to override TRC unc) | 0.0286 kPa
374.73 K, static (had to override TRC unc) | 0.0286 kPa
377.08 K, static (had to override TRC unc) | 0.03379 kPa
377.11 K, static (had to override TRC unc) | 0.03408 kPa
377.77 K, static (had to override TRC unc) | 0.03569 kPa
380.17 K, static (had to override TRC unc) | 0.04186 kPa
380.19 K, static (had to override TRC unc) | 0.04192 kPa
382.55 K, static (had to override TRC unc) | 0.04942 kPa
382.59 K, static (had to override TRC unc) | 0.04972 kPa and 0.0496 kPa
384.99 K, static (had to override TRC unc) | 0.0582 kPa
385.01 K, static (had to override TRC unc) | 0.05821 kPa
387.37 K, static (had to override TRC unc) | 0.06807 kPa
387.39 K, static (had to override TRC unc) | 0.06861 kPa
389.8 K, static (had to override TRC unc) | 0.07986 kPa
389.83 K, static (had to override TRC unc) | 0.07998 kPa
392.18 K, static (had to override TRC unc) | 0.09311 kPa
392.2 K, static (had to override TRC unc) | 0.09367 kPa
394.61 K, static (had to override TRC unc) | 0.1087 kPa
394.64 K, static (had to override TRC unc) | 0.1087 kPa
397 K, static (had to override TRC unc) | 0.1258 kPa
397.02 K, static (had to override TRC unc) | 0.1266 kPa
399.42 K, static (had to override TRC unc) | 0.1462 kPa
399.45 K, static (had to override TRC unc) | 0.1464 kPa
401.81 K, static (had to override TRC unc) | 0.1688 kPa and 0.1687 kPa
401.83 K, static (had to override TRC unc) | 0.1694 kPa
404.23 K, static (had to override TRC unc) | 0.1952 kPa
404.26 K, static (had to override TRC unc) | 0.1952 kPa
406.62 K, static (had to override TRC unc) | 0.2242 kPa and 0.224 kPa
406.64 K, static (had to override TRC unc) | 0.2251 kPa
409.68 K, static (had to override TRC unc) | 0.2687 kPa
409.69 K, static (had to override TRC unc) | 0.269 kPa
412.08 K, static (had to override TRC unc) | 0.308 kPa
412.11 K, static (had to override TRC unc) | 0.3089 kPa
414.48 K, static (had to override TRC unc) | 0.3526 kPa
414.49 K, static (had to override TRC unc) | 0.3526 kPa
416.89 K, static (had to override TRC unc) | 0.4023 kPa
416.92 K, static (had to override TRC unc) | 0.4033 kPa
419.3 K, static (had to override TRC unc) | 0.4585 kPa and 0.4583 kPa
421.7 K, static (had to override TRC unc) | 0.521 kPa
421.73 K, static (had to override TRC unc) | 0.5224 kPa
424.1 K, static (had to override TRC unc) | 0.5919 kPa
424.11 K, static (had to override TRC unc) | 0.5923 kPa
426.5 K, static (had to override TRC unc) | 0.6698 kPa
426.53 K, static (had to override TRC unc) | 0.6725 kPa
428.91 K, static (had to override TRC unc) | 0.7586 kPa and 0.7584 kPa
431.31 K, static (had to override TRC unc) | 0.8565 kPa
431.34 K, static (had to override TRC unc) | 0.8583 kPa
433.72 K, static (had to override TRC unc) | 0.9653 kPa
433.73 K, static (had to override TRC unc) | 0.9671 kPa
436.11 K, static (had to override TRC unc) | 1.086 kPa
436.13 K, static (had to override TRC unc) | 1.087 kPa
